Assay [1] has as its target DNA-3-methyladenine glycosylase (Homo sapiens) (UniProt P29372). The following applies: Compound Concentration 10.0 uM, Hit No.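 Note: enzyme assay where MPG cuts a quenched duplex DNA oligonucleotide probe, paired with APE1 for strand incision and turnover, read as fluorescence at 594 nm.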
Description: Inhibition of MPG by quantifying inhibition of MPG-mediated cleavage and dissociation of quenched duplex DNA oligonucleotides, measured as fluorescence at 594 nm. To generate a functional strand incision and increase turn-over this assay is coupled to APE1.
For assay [2], the target named is G/T mismatch-specific thymine DNA glycosylase (Homo sapiens) (UniProt Q13569). The note with it: Compound Concentration 10.0 uM, Hit No.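 Note: human TDG cleavage of quenched duplex DNA oligonucleotides coupled to APE1, strand release read as fluorescence at 594 nm, inhibition of TDG activity.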
Chain of G/T mismatch-specific thymine DNA glycosylase (Homo sapiens) (Q13569 whole entry): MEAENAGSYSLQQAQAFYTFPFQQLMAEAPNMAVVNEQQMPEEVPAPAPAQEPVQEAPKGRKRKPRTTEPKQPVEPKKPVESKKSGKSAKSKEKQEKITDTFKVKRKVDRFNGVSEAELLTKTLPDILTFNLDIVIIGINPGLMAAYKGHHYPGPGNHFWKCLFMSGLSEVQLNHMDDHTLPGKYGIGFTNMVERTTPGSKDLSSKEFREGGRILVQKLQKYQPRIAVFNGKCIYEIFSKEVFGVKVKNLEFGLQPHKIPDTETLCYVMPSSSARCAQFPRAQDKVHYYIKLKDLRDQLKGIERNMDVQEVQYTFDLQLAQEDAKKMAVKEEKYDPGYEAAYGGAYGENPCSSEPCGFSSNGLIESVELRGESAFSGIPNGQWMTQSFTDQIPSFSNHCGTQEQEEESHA
Description: Inhibition of TDG by quantifying inhibition of TDG-mediated cleavage and dissociation of quenched duplex DNA oligonucleotides, measured as fluorescence at 594 nm. To generate a functional strand incision and increase turn-over this assay is coupled to APE1.
Assay [3] addresses T1, Endonuclease 8-like 2 (Homo sapiens) (UniProt Q969S2).
T1 sequence (whole entry): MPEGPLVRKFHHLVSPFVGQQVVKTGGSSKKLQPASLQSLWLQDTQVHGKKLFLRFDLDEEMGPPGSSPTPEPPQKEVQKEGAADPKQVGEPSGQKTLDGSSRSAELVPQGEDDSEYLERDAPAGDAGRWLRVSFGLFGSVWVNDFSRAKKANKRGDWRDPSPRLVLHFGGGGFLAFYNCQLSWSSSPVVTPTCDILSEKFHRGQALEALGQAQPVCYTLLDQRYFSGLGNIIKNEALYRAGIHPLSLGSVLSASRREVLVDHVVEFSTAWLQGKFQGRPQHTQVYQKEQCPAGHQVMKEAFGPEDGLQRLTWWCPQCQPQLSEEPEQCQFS
The note with it: Compound Concentration 10.0 uM.
Description: Inhibition of NEIL2 by quantifying inhibition of NEIL2-mediated cleavage and dissociation of quenched duplex DNA oligonucleotides, measured as fluorescence at 594 nm.

The target in assay [4] is N-glycosylase/DNA lyase (Homo sapiens) (UniProt O15527). The note with it: Compound Concentration 10.0 uM, Hit No.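 Note: OGG1 cleavage of a quenched duplex DNA oligonucleotide, coupled to APE1 for strand incision, read as fluorescence at 594 nm.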
Chain of N-glycosylase/DNA lyase (Homo sapiens) (O15527 whole entry): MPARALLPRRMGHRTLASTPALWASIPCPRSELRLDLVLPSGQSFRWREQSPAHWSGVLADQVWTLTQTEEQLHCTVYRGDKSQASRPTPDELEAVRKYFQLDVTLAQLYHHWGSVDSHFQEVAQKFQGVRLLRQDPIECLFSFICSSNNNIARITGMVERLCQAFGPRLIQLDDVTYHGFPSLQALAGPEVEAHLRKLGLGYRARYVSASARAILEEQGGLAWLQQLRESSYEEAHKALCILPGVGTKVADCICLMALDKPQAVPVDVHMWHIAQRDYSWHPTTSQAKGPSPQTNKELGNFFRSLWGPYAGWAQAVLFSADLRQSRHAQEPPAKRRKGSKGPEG
Description: Inhibition of OGG1 by quantifying inhibition of OGG1-mediated cleavage and dissociation of quenched duplex DNA oligonucleotides, measured as fluorescence at 594 nm. To generate a functional strand incision and increase turn-over this assay is coupled to APE1.
Assay [5] deals with T2, Endonuclease III-like protein 1 (Homo sapiens) (UniProt P78549).
T2 sequence (whole entry): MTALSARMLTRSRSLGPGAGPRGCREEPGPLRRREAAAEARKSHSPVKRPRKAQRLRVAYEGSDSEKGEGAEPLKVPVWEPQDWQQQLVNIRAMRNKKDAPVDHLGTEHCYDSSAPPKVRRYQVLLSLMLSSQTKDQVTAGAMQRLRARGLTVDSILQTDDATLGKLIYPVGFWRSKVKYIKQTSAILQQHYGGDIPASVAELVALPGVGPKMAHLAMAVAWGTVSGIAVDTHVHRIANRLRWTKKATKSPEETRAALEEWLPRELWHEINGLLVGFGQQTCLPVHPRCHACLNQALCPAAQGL
The following applies: Compound Concentration 10.0 uM, Hit No.
Description: Inhibition of NTHL1 by quantifying inhibition of NTHL1-mediated cleavage and dissociation of quenched duplex DNA oligonucleotides, measured as fluorescence at 594 nm.

In assay [6] the target is Uracil-DNA glycosylase (Homo sapiens) (UniProt P13051). The following applies: Compound Concentration 10.0 uM, Hit No.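 Note: UNG excision on a quenched double-stranded DNA oligo probe, with APE1 added for strand incision and turnover, read as fluorescence at 594 nm as strands separate.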
Chain of Uracil-DNA glycosylase (Homo sapiens) (P13051 whole entry): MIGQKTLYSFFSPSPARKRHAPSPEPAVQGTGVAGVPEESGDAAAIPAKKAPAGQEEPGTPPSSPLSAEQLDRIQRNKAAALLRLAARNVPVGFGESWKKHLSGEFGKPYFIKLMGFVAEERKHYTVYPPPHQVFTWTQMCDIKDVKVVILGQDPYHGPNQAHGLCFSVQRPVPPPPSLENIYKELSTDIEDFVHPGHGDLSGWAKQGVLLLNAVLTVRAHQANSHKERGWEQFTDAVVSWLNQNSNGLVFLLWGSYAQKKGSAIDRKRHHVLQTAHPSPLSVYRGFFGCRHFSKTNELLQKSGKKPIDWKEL
Description: Inhibition of UNG by quantifying inhibition of UNG-mediated cleavage and dissociation of quenched duplex DNA oligonucleotides, measured as fluorescence at 594 nm. To generate a functional strand incision and increase turn-over this assay is coupled to APE1.
For assay [7], the target named is Endonuclease 8-like 1 (Homo sapiens) (UniProt Q96FI4). The note with it: Compound Concentration 10.0 uM, Hit No.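 Note: fluorescence at 594 nm from quenched duplex DNA oligonucleotides released by NEIL1 cleavage and strand separation, reported as reduction of this enzyme activity.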
Chain of Endonuclease 8-like 1 (Homo sapiens) (Q96FI4 whole entry, the tested form may be a part): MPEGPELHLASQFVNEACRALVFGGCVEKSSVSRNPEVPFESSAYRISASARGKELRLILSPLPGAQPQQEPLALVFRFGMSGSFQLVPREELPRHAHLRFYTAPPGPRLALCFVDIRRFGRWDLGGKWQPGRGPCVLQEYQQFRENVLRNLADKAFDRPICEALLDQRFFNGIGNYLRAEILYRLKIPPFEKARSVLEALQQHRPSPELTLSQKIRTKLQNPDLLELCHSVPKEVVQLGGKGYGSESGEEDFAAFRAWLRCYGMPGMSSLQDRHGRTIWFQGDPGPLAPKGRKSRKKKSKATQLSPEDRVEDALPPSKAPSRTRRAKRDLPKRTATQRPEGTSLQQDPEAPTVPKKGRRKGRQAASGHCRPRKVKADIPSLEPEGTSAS
Description: Inhibition of NEIL1 by quantifying inhibition of NEIL1-mediated cleavage and dissociation of quenched duplex DNA oligonucleotides, measured as fluorescence at 594 nm.
Assay [8] concerns the target Methyl-CpG-binding domain protein 4 (Homo sapiens) (UniProt O95243). The following applies: Compound Concentration 10.0 uM.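 Note: MBD4 activity read as fluorescence at 594 nm from cleavage and release of a quenched duplex DNA oligonucleotide, with APE1 coupled to incise the strand and raise turnover.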
Description: Inhibition of MBD4 by quantifying inhibition of MBD4-mediated cleavage and dissociation of quenched duplex DNA oligonucleotides, measured as fluorescence at 594 nm. To generate a functional strand incision and increase turn-over this assay is coupled to APE1.
In assay [9] the target is T3, Single-strand selective monofunctional uracil DNA glycosylase (Homo sapiens) (UniProt Q53HV7).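 Note: enzymatic SMUG1 assay coupled with APE1, reading fluorescence at 594 nm released when a quenched double-stranded DNA oligonucleotide substrate is cleaved and separated.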
T3 sequence (whole entry): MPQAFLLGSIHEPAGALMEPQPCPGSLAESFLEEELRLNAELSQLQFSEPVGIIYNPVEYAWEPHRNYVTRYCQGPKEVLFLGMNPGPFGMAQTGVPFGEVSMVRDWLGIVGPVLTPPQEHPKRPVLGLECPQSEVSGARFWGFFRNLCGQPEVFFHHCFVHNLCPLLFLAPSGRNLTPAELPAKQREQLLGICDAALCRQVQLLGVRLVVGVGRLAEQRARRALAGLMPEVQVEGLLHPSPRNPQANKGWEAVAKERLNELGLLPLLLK
The note with it: Compound Concentration 10.0 uM, Hit No.
Description: Inhibition of SMUG1 by quantifying inhibition of SMUG1-mediated cleavage and dissociation of quenched duplex DNA oligonucleotides, measured as fluorescence at 594 nm. To generate a functional strand incision and increase turn-over this assay is coupled to APE1.

The source of these data is ChEMBL document CHEMBL5665443, “Enzyme Inhibitor Single Concentration assay results for EUbOPEN Chemogenomics Library” (2024).

In general, inhibition refers to the relative decrease from the control value, in per cent.

Chain of DNA-3-methyladenine glycosylase (Homo sapiens) (P29372 whole entry): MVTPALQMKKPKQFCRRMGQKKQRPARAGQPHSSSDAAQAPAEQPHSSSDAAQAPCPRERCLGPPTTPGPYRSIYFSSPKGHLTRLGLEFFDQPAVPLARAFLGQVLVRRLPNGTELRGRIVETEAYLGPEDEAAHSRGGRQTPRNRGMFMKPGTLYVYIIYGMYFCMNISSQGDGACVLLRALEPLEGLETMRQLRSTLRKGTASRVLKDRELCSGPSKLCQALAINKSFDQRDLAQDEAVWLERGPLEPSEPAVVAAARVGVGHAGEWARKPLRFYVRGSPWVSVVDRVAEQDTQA
Chain of Methyl-CpG-binding domain protein 4 (Homo sapiens) (O95243 whole entry, the tested form may be a part): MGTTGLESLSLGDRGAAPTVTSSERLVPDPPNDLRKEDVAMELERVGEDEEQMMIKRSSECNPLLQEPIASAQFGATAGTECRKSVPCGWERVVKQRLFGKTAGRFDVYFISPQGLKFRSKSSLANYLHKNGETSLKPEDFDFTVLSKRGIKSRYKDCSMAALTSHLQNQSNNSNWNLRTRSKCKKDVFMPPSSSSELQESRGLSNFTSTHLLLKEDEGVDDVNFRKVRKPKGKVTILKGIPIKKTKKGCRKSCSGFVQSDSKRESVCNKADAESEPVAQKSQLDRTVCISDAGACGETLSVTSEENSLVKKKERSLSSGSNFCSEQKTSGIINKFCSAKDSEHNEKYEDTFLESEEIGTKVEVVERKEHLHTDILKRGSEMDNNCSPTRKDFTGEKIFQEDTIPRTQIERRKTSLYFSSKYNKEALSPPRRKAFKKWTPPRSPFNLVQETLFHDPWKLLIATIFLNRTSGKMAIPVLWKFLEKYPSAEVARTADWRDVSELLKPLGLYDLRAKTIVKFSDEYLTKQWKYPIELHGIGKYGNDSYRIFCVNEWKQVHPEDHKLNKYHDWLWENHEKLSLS

On to `N#Cc1c(Oc2cccc(OS(=O)(=O)CCCC(F)(F)F)c2)cccc1C(F)(F)F`, for which the inhibition is 8.15% in assay [1]; -4.05% in assay [2]; -7.74% in assay [3] (Hit No); -7.69% in assay [4]; -1.91% in assay [5]; -1.27% in assay [6].
For the compound `CS(=O)(=O)c1ccc(C(=O)Nc2ccc(Cl)c(-c3ccccn3)c2)c(Cl)c1`, the inhibition is 3.5% in [7]; 3.65% in assay [1]; 6.01% in [2]; 5.76% in [3] (Hit No); -9.8% in [5].
As for `C[C@H](CO)Nc1nc(SCc2cccc(Cl)c2F)nc2[nH]c(=O)sc12`, the inhibition in assay [7] was 8.99%; in [1] it was 2.92%; in [2], 22%; in assay [8] (Hit No) it was 13.6%; in assay [3] (Hit No), -2.98%; in assay [9], 6.22%. Moreover, the inhibition in assay [4] is 5.5%; in assay [6] it was -8.73%.
For the compound `C[C@H](NC(=O)CNC(=O)c1cccc(Cl)c1)c1ccccc1`, the inhibition was -1.54% in assay [7]; 13.7% in assay [1]; 6.8% in assay [2]; -8.91% in assay [8] (Hit No); -8.97% in [3] (Hit No); -9.41% in [4].
Turning to `COc1ccccc1N1CCN(CCCCNC(=O)c2ccc3ccccc3c2)CC1`, the inhibition in [7] worked out at 4.99%; in assay [1], 14.3%; in assay [2], 10.4%; in [8] (Hit No) it was 0.789%; in assay [3] (Hit No) it was 11%; in [4], 9.63%. Moreover, the inhibition in assay [6] was -4.08%.
Consider `Cc1cc(Cn2nnc3c(-c4ccco4)nc(N)nc32)ccc1N`, for which the inhibition in [7] is -2.58%; in [1] it was -3.71%; in assay [2], 17.6%; in [8] (Hit No), 4.16%; in assay [3] (Hit No), 2.26%; in assay [9], -2.07%. In assay [4], the inhibition came out at 0.253%.
Regarding `CCOc1ccccc1C(=O)NCC1(N2CCN(CC)CC2)CCCCC1`, the inhibition was -3.55% in [7]; -0.78% in [1]; 5.23% in assay [2]; -3.81% in assay [8] (Hit No); 3.22% in assay [3] (Hit No); -8.6% in [9]. In addition, in assay [6], the inhibition is -8.16%.
For the compound `O=C(NCC1(N2CCN(c3ccccc3)CC2)CCOCC1)c1cccnc1Sc1ccccc1`, the inhibition in assay [7] was -4.14%; in assay [1] it was 1.32%; in assay [2], -0.15%; in [3] (Hit No) it was -7.99%; in [9] it was 2.13%; in assay [5], 23.7%. The inhibition in assay [6] is 1.03%.
On to `CCC(=O)NCC[C@@H]1CCc2ccc3c(c21)CCO3`, for which the inhibition in [7] was 10.6%; in assay [1], 4.81%; in assay [2], 9.54%; in assay [8] (Hit No) it was -9.72%; in assay [3] (Hit No), 6%; in assay [9], -9.19%. Moreover, the inhibition is 6.47% in assay [4] and -9.69% in assay [6].
For `Cc1ccc(OCC(O)C(C)NC(C)C)c2c1CCC2` (stereo unspecified), the inhibition is 7.65% in assay [7]; 6.31% in [1]; 8.49% in [2]; 134% in assay [8] (Hit Yes); -0.983% in assay [3] (Hit No); -9.41% in [4].
In the case of `CSc1nc(NC2CCCC2)c([N+](=O)[O-])c(NC2CCCC2)n1`, the inhibition in assay [7] was 2.61%; in assay [1], -2.56%; in [2], 7.68%; in assay [3] (Hit No), 7.5%; in [4], -2.94%; in assay [5], 21%.
Regarding `COC(=O)[C@H](CCCN=C(N)N)NC(=O)CCCc1c(-c2ccccc2)[nH]c2c(F)cc(F)cc12`, the inhibition in [7] was 5.58%; in assay [1], 5.31%; in assay [2], 16.3%; in assay [3] (Hit Yes) it was 38.2%; in [4], -3.54%; in [5], -5.41%. For the same compound, the inhibition in assay [6] was -5.65%.
`CC[C@H]1CN2CCc3cc(OC)c(OC)cc3[C@@H]2C[C@@H]1C[C@H]1NCCc2cc(OC)c(OC)cc21`: the inhibition was -0.5% in assay [7]; -9.31% in assay [1]; -0.514% in assay [2]; 4.51% in assay [3] (Hit No); -7.35% in assay [9]; 3.39% in assay [5].
As to `CN1[C@@H](CC(=O)c2ccccc2)CCC[C@H]1C[C@H](O)c1ccccc1`, the inhibition in assay [7] was 1.64%; in assay [1] it was -4.83%; in assay [2], -5.94%; in assay [9], 1.46%; in assay [4], -6.7%; in assay [5], -8.51%. The inhibition in assay [6] is -4.79%.
Consider `COC(=O)C1=C(C)NC(C)=C(C(=O)OCCCN2CCC(c3ccccc3)(c3ccccc3)CC2)[C@H]1c1cccc([N+](=O)[O-])c1`, for which the inhibition in assay [1] is -9.35%; in assay [2] it was 35.3%; in assay [8] (Hit No), -5.72%; in assay [3] (Hit No), 13.7%; in assay [9] it was 9.7%; in [4], -5.2%. Also, in assay [6], the inhibition was -9.34%.
Regarding `CC1CCN(CC[C@H]2CCCN2S(=O)(=O)c2cccc(O)c2)CC1`, the inhibition in [7] is 8.25%; in assay [1], -7.22%; in [2], 2.43%; in [8] (Hit No) it was 6.36%; in [3] (Hit No), -5.22%; in assay [9], 3.5%. Besides, the inhibition in assay [4] is -3.4%; in [6] it was -9.71%.
Take `CC(C)(O)CCn1c(=O)n(C(=O)N[C@H](C(N)=O)C(C)(C)C)c2ccccc21`: the inhibition in assay [7] was 2.61%; in [1] it was -4.33%; in assay [2], 10.8%; in assay [3] (Hit No), 1.76%; in [9] it was -3.57%; in [4] it was -0.203%. The inhibition in assay [6] is -9.98%.
For the compound `CC[C@@H](C)Nc1nc(C)nc2c(-c3ccc(OC)nc3C)c(C)nn12`, the inhibition in assay [7] worked out at 4.1%; in assay [1], 9.17%; in assay [2], 17.1%; in assay [8] (Hit No), 8.63%; in assay [3] (Hit No), 2.26%; in assay [9], 10.2%. Further, the inhibition in [4] is -1.59%; in assay [6], -5.14%.
For `C[C@H](CCC(=O)O)[C@H]1CC[C@H]2[C@@H]3CC[C@@H]4C[C@H](O)CC[C@]4(C)[C@H]3CC[C@]12C`, the inhibition in [7] was 10%; in assay [1], 15.2%; in [2], 21.8%; in assay [8] (Hit Yes), 140%; in assay [3] (Hit No) it was 8%; in assay [9], -9.19%. The inhibition in assay [4] was 4.17%; in assay [6] it was -8.43%.
`Cc1nn(C)c(C)c1-c1cccc2c1CC[C@H](N(C)C)C2`: the inhibition in assay [7] is 1.87%; in [1], -9.58%; in assay [2], -4.55%; in [3] (Hit No), -0.234%; in assay [4] it was -7.75%; in assay [5] it was 6.32%.
Consider `Cc1[nH]cnc1CN1CCc2c(c3ccccc3n2C)C1=O`, for which the inhibition in assay [7] was found to be 11.2%; in assay [1], 3.5%; in [2], 19%; in assay [8] (Hit No), 11.9%; in [9] it was 3.41%; in assay [4] it was 1.31%. In [6], the inhibition was -6.85%.
For `Nc1nc(-c2ccco2)c2cnn(Cc3ccccc3F)c2n1`, the inhibition was -2.72% in assay [7]; -1.21% in assay [1]; -4.93% in [2]; -3.33% in assay [8] (Hit No); -7.72% in assay [6].
In the case of `OCc1cc(C(O)CNCCCCCCOCCCCc2ccccc2)ccc1O` (stereo unspecified), the inhibition in assay [7] is 8.39%; in assay [1], 0.951%; in assay [2] it was 6.25%; in assay [3] (Hit No), 4.01%; in assay [4], -5.95%; in assay [5], 11.4%. Further, the inhibition in assay [6] is -9.38%.
